Test results taken from patent US20180000085A1, “USE OF PICOLINAMIDE COMPOUNDS WITH FUNGICIDAL ACTIVITY” (DOW AGROSCIENCES LLC, priority 2014, published 2018).

How the values were obtained:
Assay type in all cases: in vivo
Zymoseptoria tritici = experiment: Leaf blotch of wheat (SEPTTR) disease control on wheat seedlings; settings: for SEPTTR 1DP, LV activity at 125.1 g/H (% Control rating) / SEPTTR 3DC, LV activity at 125.1 g/H (% Control rating) / SEPTTR 1DP disease control rating, LV activity at 125.1 g/H / SEPTTR 3DC disease control rating, LV activity at 125.1 g/H: low volume application; for SEPTTR 1DP disease control rating, LV activity at 125.1 g/H: 1 day protectant; for SEPTTR 3DC disease control rating, LV activity at 125.1 g/H: 3 day curative
Puccinia triticina = experiment: Wheat brown rust (PUCCRT) disease control on wheat seedlings; set-up: key to PUCCRT 3DC, HV activity at 100 ppm (% control rating) / PUCCRT disease control, 3DC / PUCCRT 1DP disease control rating, HV activity / PUCCRT 3DC disease control rating, HV activity / PUCCRT 3DC, LV activity at 125.1 g/H (% Control rating) / PUCCRT 1DP, LV activity at 125.1 g/H (% Control rating) / PUCCRT 3DC disease control rating, LV activity at 125.1 g/H / PUCCRT 1DP disease control rating, LV activity at 125.1 g/H / PUCCRT 3DC disease control rating, HV activity at 100 ppm / PUCCRT 1DP disease control rating, HV activity at 100 ppm / HV activity at 100 ppm PUCCRT 3DC (disease control rating) / LV activity at 125.1 g/H PUCCRT 1DP (disease control rating) / LV activity at 125.1 g/H PUCCRT 3DC (disease control rating): A: > 80; B: ≤ 80; C: Not Tested; D: No Activity Observed in the Reported Assay; settings: for PUCCRT 1DP, LV activity at 125.1 g/H (% Control rating) / PUCCRT 3DC, LV activity at 125.1 g/H (% Control rating) / PUCCRT 1DP disease control rating, LV activity at 125.1 g/H / PUCCRT 3DC disease control rating, LV activity at 125.1 g/H: low volume application; for PUCCRT 1DP disease control rating, LV activity at 125.1 g/H: 1 day protectant; for PUCCRT 3DC disease control rating, LV activity at 125.1 g/H: 3 day curative
Alternaria solani = experiment: Tomato early blight (ALTESO) disease control; set-up: key: A: > 80; B: ≤ 80; C: Not Tested; D: No Activity Observed in the Reported Assay; settings: 100 ppm, 1 Day Protectant
Procedure: All fungicides were evaluated using the aforementioned method for their activity vs. all target diseases, unless stated otherwise. Wheat leaf blotch and brown rust activity were also evaluated using track spray applications, in which case the fungicides were formulated as EC formulations, containing 0.1% Trycol 5941 in the spray solutions. Wheat plants (variety Yuma) were grown from seed in a greenhouse in 50% mineral soil/50% soil-less Metro mix until the first leaf was fully emerged, with 7-10 seedlings per pot. These plants were inoculated with an aqueous spore suspension of Zymoseptoria tritici either prior to or after fungicide treatments. After inoculation the plants were kept in 100% relative humidity (one day in a dark dew chamber followed by two to three days in a lighted dew chamber at 20° C.) to permit spores to germinate and infect the leaf. The plants were then transferred to a greenhouse set at 20° C. for disease to develop. When disease symptoms were fully expressed on the 1st leaves of untreated plants, infection levels were assessed on a scale of 0 to 100 percent disease severity. Percent disease control was calculated using the ratio of disease severity on treated plants relative to untreated plants. Example J: Evaluation of Fungicidal Activity: Tomato Early Blight (Alternaria solani; Bayer Code […]) Tomato plants (variety Outdoor Girl) were propagated in soil-less Metro mix, with each pot having one plant, and used when 12 to 14 days old. Test plants were inoculated with an aqueous spore suspension of Alternaria solani 24 hr after fungicide treatments. After inoculation the plants were kept in a dew room at 22° C. with 100% relative humidity for 48 h to permit spores to germinate and infect the leaf. The plants were then transferred to a growth room at 22° C. for disease to develop. Fungicide formulation, application and disease assessment on the sprayed leaves followed the procedures as described in the Example A.

Row | SMILES | ALTESO disease control, 1DP (Alternaria solani) | SEPTTR 1DP, LV activity at 125.1 g/H (% Control rating) (Zymoseptoria tritici; 1 Day Protectant) | SEPTTR 3DC, LV activity at 125.1 g/H (% Control rating) (Zymoseptoria tritici; 3 Day Curative) | PUCCRT 1DP, LV activity at 125.1 g/H (% Control rating) (Puccinia triticina; 1 Day Protectant) | PUCCRT 3DC, LV activity at 125.1 g/H (% Control rating) (Puccinia triticina; 3 Day Curative) | other results
1 | CCCOC(CC)C(Oc1ccccc1)C(C)OC(=O)C(C)NC(=O)c1nccc(OC)c1OCOC(C)=O (centres unmarked) [Cmpd 446] | D | – | – | – | – | SEPTTR 1DP disease control rating, HV activity (Zymoseptoria tritici; HV application at 100 ppm, 1 Day Protectant, wheat leaf blotch): A (> 80); SEPTTR 3DC disease control rating, HV activity (Zymoseptoria tritici; HV application at 100 ppm, 3 Day Curative, wheat leaf blotch): A (> 80); SEPTTR 1DP disease control rating, LV activity (Zymoseptoria tritici; Low volume application at 125.1 g/H, 1 Day Protectant, wheat leaf blotch): A (> 80); SEPTTR 3DC disease control rating, LV activity (Zymoseptoria tritici; Low volume application at 125.1 g/H, 3 Day Curative, wheat leaf blotch): A (> 80); PUCCRT 1DP disease control rating, HV activity (Puccinia triticina; HV application at 100 ppm, 1 Day Protectant, wheat brown rust): A (> 80); PUCCRT 3DC disease control rating, HV activity (Puccinia triticina; HV application at 100 ppm, 3 Day Curative, wheat brown rust): A (> 80); PUCCRT 1DP disease control rating, LV activity (Puccinia triticina; Low volume application at 125.1 g/H, 1 Day Protectant, wheat brown rust): A (> 80); PUCCRT 3DC disease control rating, LV activity (Puccinia triticina; Low volume application at 125.1 g/H, 3 Day Curative, wheat brown rust): A (> 80)
2 | COc1ccnc(C(=O)N[C@@H](C)C(=O)O[C@@H](C)[C@H](Oc2ccccc2Cl)c2ccccc2)c1OC(C)=O [Cmpd 640] | B (≤ 80) | A (> 80) | A (> 80) | A (> 80) | A (> 80) | –
3 | COc1ccnc(C(=O)N[C@@H](C)C(=O)O[C@@H](C)[C@H](Oc2ccccc2)C2CCCC2)c1OCOC(C)=O [Cmpd 556] | B (≤ 80) | A (> 80) | A (> 80) | A (> 80) | A (> 80) | –
4 | COc1ccnc(C(=O)N[C@@H](C)C(=O)O[C@@H](C)[C@H](Oc2ccccc2)c2ccccc2)c1OCOC(C)=O [Cmpd 500] | B (≤ 80) | A (> 80) | A (> 80) | A (> 80) | A (> 80) | –
5 | CCC(CC)[C@@H](Oc1ccccc1)[C@H](C)OC(=O)[C@H](C)NC(=O)c1nccc(OC)c1OCOC(C)=O [Cmpd 477] | B (≤ 80) | A (> 80) | A (> 80) | A (> 80) | A (> 80) | –
6 | COc1ccnc(C(=O)N[C@@H](C)C(=O)O[C@@H](C)[C@@H](Oc2ccccc2)C(C)C)c1OCOC(C)=O [Cmpd 552] | B (≤ 80) | A (> 80) | A (> 80) | A (> 80) | A (> 80) | –
7 | COc1ccnc(C(=O)N[C@@H](C)C(=O)O[C@@H](C)[C@H](Oc2cc(F)cc(Cl)c2)C(C)C)c1OCOC(C)=O [Cmpd 617] | D | A (> 80) | A (> 80) | A (> 80) | A (> 80) | –
8 | CCC(C)C(Oc1ccccc1)C(C)OC(=O)C(C)NC(=O)c1nccc(OC)c1OCOC(C)=O (centres unmarked) [Cmpd 692] | B (≤ 80) | – | – | – | – | SEPTTR 1DP disease control rating, LV activity at 125.1 g/H (Zymoseptoria tritici): A (> 80); SEPTTR 3DC disease control rating, LV activity at 125.1 g/H (Zymoseptoria tritici): A (> 80); PUCCRT 1DP disease control rating, LV activity at 125.1 g/H (Puccinia triticina): A (> 80); PUCCRT 3DC disease control rating, LV activity at 125.1 g/H (Puccinia triticina): A (> 80)
9 | CC[C@@H](CCOC)[C@@H](Oc1ccccc1)[C@H](C)OC(=O)[C@H](C)NC(=O)c1nccc(OC)c1OC(C)=O [Cmpd 482] | B (≤ 80) | A (> 80) | A (> 80) | A (> 80) | A (> 80) | –
10 | CCC(CC)[C@@H](Oc1ccc(F)cc1)[C@H](C)OC(=O)[C@H](C)NC(=O)c1nccc(OC)c1OCOC(C)=O [Cmpd 587] | D | A (> 80) | A (> 80) | A (> 80) | A (> 80) | –
11 | CCC[C@@H](Oc1ccccc1)[C@H](C)OC(=O)[C@H](C)NC(=O)c1nccc(OC)c1OCOC(C)=O [Cmpd 699] | B (≤ 80) | – | – | – | – | SEPTTR 1DP disease control rating, LV activity at 125.1 g/H (Zymoseptoria tritici): A (> 80); SEPTTR 3DC disease control rating, LV activity at 125.1 g/H (Zymoseptoria tritici): A (> 80); PUCCRT 1DP disease control rating, LV activity at 125.1 g/H (Puccinia triticina): A (> 80); PUCCRT 3DC disease control rating, LV activity at 125.1 g/H (Puccinia triticina): A (> 80)
12 | COc1ccnc(C(=O)N[C@H](C)C(=O)O[C@@H](C)[C@H](Oc2ccccc2)C(C)C)c1OCOC(C)=O [Cmpd 558] | B (≤ 80) | B (≤ 80) | B (≤ 80) | D | B (≤ 80) | –
13 | COc1ccnc(C(=O)N[C@H](C)C(=O)O[C@@H](C)[C@@H](Oc2ccccc2)C(C)C)c1OCOC(C)=O [Cmpd 559] | B (≤ 80) | B (≤ 80) | A (> 80) | D | D | –
14 | C=CC(C)C(Oc1ccccc1)C(C)OC(=O)C(C)NC(=O)c1nccc(OC)c1OCOC(C)=O (centres unmarked) [Cmpd 694] | B (≤ 80) | – | – | – | – | SEPTTR 1DP disease control rating, LV activity at 125.1 g/H (Zymoseptoria tritici): B (≤ 80); SEPTTR 3DC disease control rating, LV activity at 125.1 g/H (Zymoseptoria tritici): A (> 80); PUCCRT 1DP disease control rating, LV activity at 125.1 g/H (Puccinia triticina): A (> 80); PUCCRT 3DC disease control rating, LV activity at 125.1 g/H (Puccinia triticina): A (> 80)
